These results are taken from patent publication US8748441B2, “Therapeutic uses of quinazolinedione derivatives” (SANOFI, priority 2009, dated 2014).

Assay [1] concerns PDE8. Put plainly: PDE8 enzymatic assay equivalent to that described for PDE7. It is filed as biochemical.
For assay [2], the system named is MG7 microglial cells. Put plainly: In vitro model of microglial activation: interleukin-1β secretion by LPS-activated MG7 cells (ELISA). It is filed as cell-based, mouse. The protocol: The compounds according to the invention have been evaluated in an in vitro model of microglial activation. After activation by lipopolysaccharide (LPS), the microglial cells secrete large amounts of interleukin-1, which amounts can be quantified by specific assaying in the cell supernatants.
Cultures of microglial cells of the MG7 line derived from the mouse cortex are incubated in the presence of variable concentrations of compounds according to the invention. After incubating at 37° C. for 1 hour, the cells are brought together with LPS, which induces the production of interleukin-1. After treating for 24 h, the amounts of interleukin-1β are measured in the culture supernatants by ELISA assay.
Background: ELISA stands for enzyme-linked immunosorbent assay.

As usually defined, the IC50 is the midpoint of a concentration-inhibition curve. For the molecule `COc1ccc(Cn2c(=O)c3cc(OC(CF)CF)ccc3n(C3CCN(C=O)CC3)c2=O)cc1OC` [No. 11, 4-[3-(3,4-dimethoxybenzyl)-6-[2-fluoro-1-(fluoromethyl)ethoxy]-2,4-dioxo-3,4-dihydroquinazolin-1(2H)-yl]piperidine-1-carbaldehyde], the concentration for half-maximal inhibition (IC50) in assay [1] worked out at 140 nM.

As to `N#Cc1cc(Cn2c(=O)c3cc(OC(CF)CF)ccc3n(C3CCN(C=O)CC3)c2=O)ccc1-c1ccccc1` [No. 294, 4-({6-[2-fluoro-1-(fluoromethyl)ethoxy]-1-(1-formylpiperidin-4-yl)-2,4-dioxo-1,4-dihydroquinazolin-3(2H)-yl}methyl)biphenyl-2-carbonitrile], in assay [1], the half-inhibitory concentration (IC50) worked out at 15 nM.

In the case of `O=CN1CCC(n2c(=O)n(Cc3ccc(-c4cccs4)cc3)c(=O)c3cc(OC(CF)CF)c(F)cc32)CC1` [No. 297, 4-{7-fluoro-6-[2-fluoro-1-(fluoromethyl)ethoxy]-2,4-dioxo-3-(4-(thiophen-2-yl)benzyl)-3,4-dihydroquinazolin-1(2H)-yl}piperidine-1-carbaldehyde], the inhibition at 3 µM in assay [2] (Mus musculus, at 3 μM, MG7 microglial cells activated by LPS, 24 h, read-out: maximum inhibitory effect on secretion of interleukin-1β) worked out at 47%. The “secretion of interleukin-1β by MG7 microglial cells activated by LPS” value in assay [2] (variable concentrations, 1 h preincubation, LPS 24 h) was “significantly decreases, in a concentration-dependent fashion”.
